# Measurements published in ChEMBL document CHEMBL1201862, “PubChem BioAssay data set” (2004).
#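 The compound was tested at five concentrations on cells cultured in 96-well plates, with a 48-hour exposure period. The concentration for 50% growth inhibition is given as GI50.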 Active and inactive are the calls of the source. Rule as the data show it: active = GI50 up to about 1.1 µM and inactive = higher.
# Legend:
# Experiment in all cases: DTP human tumour cell line panel, 48 h
# 786-0 = test system: 786-0
# A498 = test system: A498
# A549 = test system: A549
# ACHN = test system: ACHN
# CAKI-1 = test system: CAKI-1
# CCRF-CEM = test system: CCRF-CEM
# COLO 205 = test system: COLO 205
# DU-145 = test system: DU-145
# EKVX = test system: EKVX
# HCC 2998 = test system: HCC 2998
# HCT-116 = test system: HCT-116
# HCT-15 = test system: HCT-15
# HL-60 = test system: HL-60
# HOP-62 = test system: HOP-62
# HOP-92 = test system: HOP-92
# HT-29 = test system: HT-29
# Hs-578T = test system: Hs-578T
# IGROV-1 = test system: IGROV-1
# K562 = test system: K562
# KM12 = test system: KM12
# LOX IMVI = test system: LOX IMVI
# M14 = test system: M14
# MCF7 = test system: MCF7
# MDA-MB-231 = test system: MDA-MB-231
# MDA-MB-435 = test system: MDA-MB-435
# MDA-N = test system: MDA-N
# MOLT-4 = test system: MOLT-4
# Malme-3M = test system: Malme-3M
# NCI-H226 = test system: NCI-H226
# NCI-H23 = test system: NCI-H23
# NCI-H460 = test system: NCI-H460
# NCI-H522 = test system: NCI-H522
# NCI/ADR-RES = test system: NCI/ADR-RES
# OVCAR-3 = test system: OVCAR-3
# OVCAR-4 = test system: OVCAR-4
# OVCAR-5 = test system: OVCAR-5
# OVCAR-8 = test system: OVCAR-8
# PC-3 = test system: PC-3
# RPMI-8226 = test system: RPMI-8226
# RXF 393 = test system: RXF 393
# SF-268 = test system: SF-268
# SF-295 = test system: SF-295
# SF-539 = test system: SF-539
# SK-MEL-28 = test system: SK-MEL-28
# SK-MEL-2 = test system: SK-MEL-2
# SK-MEL-5 = test system: SK-MEL-5
# SK-OV-3 = test system: SK-OV-3
# SN12C = test system: SN12C
# SNB-19 = test system: SNB-19
# SR = test system: SR
# SW-620 = test system: SW-620
# T47D = test system: T47D
# TK-10 = test system: TK-10
# U-251 = test system: U-251
# UACC-257 = test system: UACC-257
# UACC-62 = test system: UACC-62
# UO-31 = test system: UO-31
# SNB-75 = test system: SNB-75
compound,measurement,setting,value
CCOC(=O)N(C)C1(c2ccccc2)CCN(CCCC(=O)c2ccc(F)cc2)CC1,GI50,786-0,33 µM (inactive)
same,GI50,A498,36.5 µM (inactive)
same,GI50,A549,92.3 µM (inactive)
same,GI50,ACHN,84.1 µM (inactive)
same,GI50,CAKI-1,2.16 µM (inactive)
same,GI50,CCRF-CEM,31.7 µM (inactive)
same,GI50,COLO 205,15.4 µM (inactive)
same,GI50,DU-145,> 100 µM (inactive)
same,GI50,EKVX,> 100 µM (inactive)
same,GI50,HCC 2998,21 µM (inactive)
same,GI50,HCT-116,32.2 µM (inactive)
same,GI50,HCT-15,35.1 µM
same,GI50,HL-60,26.5 µM (inactive)
same,GI50,HOP-62,38.5 µM (inactive)
same,GI50,HOP-92,34.8 µM (inactive)
same,GI50,HT-29,19.7 µM (inactive)
same,GI50,Hs-578T,49 µM (inactive)
same,GI50,IGROV-1,> 100 µM (inactive)
same,GI50,K562,23.7 µM (inactive)
same,GI50,KM12,30.5 µM (inactive)
same,GI50,LOX IMVI,20.9 µM (inactive)
same,GI50,M14,17.2 µM (inactive)
same,GI50,MCF7,33.4 µM (inactive)
same,GI50,MDA-MB-231,39.4 µM (inactive)
same,GI50,MDA-MB-435,23.9 µM (inactive)
same,GI50,MDA-N,21.7 µM (inactive)
same,GI50,MOLT-4,31.8 µM (inactive)
same,GI50,Malme-3M,15.3 µM (inactive)
same,GI50,NCI-H226,35.4 µM (inactive)
same,GI50,NCI-H23,68.7 µM (inactive)
same,GI50,NCI-H460,35.5 µM (inactive)
same,GI50,NCI-H522,87.9 µM (inactive)
same,GI50,NCI/ADR-RES,47.8 µM (inactive)
same,GI50,OVCAR-3,44 µM (inactive)
same,GI50,OVCAR-4,40.2 µM (inactive)
same,GI50,OVCAR-5,49 µM (inactive)
same,GI50,OVCAR-8,> 100 µM (inactive)
same,GI50,PC-3,36.8 µM (inactive)
same,GI50,RPMI-8226,27.4 µM (inactive)
same,GI50,RXF 393,57.8 µM (inactive)
same,GI50,SF-268,90.4 µM (inactive)
same,GI50,SF-295,42.4 µM (inactive)
same,GI50,SF-539,28.6 µM (inactive)
same,GI50,SK-MEL-28,21 µM (inactive)
same,GI50,SK-MEL-2,21.5 µM (inactive)
same,GI50,SK-MEL-5,17.3 µM (inactive)
same,GI50,SK-OV-3,> 100 µM (inactive)
same,GI50,SN12C,83.4 µM (inactive)
same,GI50,SNB-19,0.0647 µM (active)
same,GI50,SR,19.8 µM (inactive)
same,GI50,SW-620,0.349 µM (active)
same,GI50,T47D,61.1 µM (inactive)
same,GI50,TK-10,45.3 µM (inactive)
same,GI50,U-251,61.4 µM (inactive)
same,GI50,UACC-257,20.3 µM (inactive)
same,GI50,UACC-62,42.1 µM (inactive)
same,GI50,UO-31,0.0148 µM (active)
CC(=O)OC1CC[C@@]2(C)C(=CC[C@@H]3[C@@H]2CC[C@]2(C)C(OC(C)=O)[C@H](n4ccnc4)C[C@@H]32)C1 (stereo not given in full),GI50,786-0,30.4 µM (inactive)
same,GI50,A498,90.4 µM (inactive)
same,GI50,A549,35.3 µM (inactive)
same,GI50,ACHN,40.3 µM (inactive)
same,GI50,CAKI-1,49.1 µM (inactive)
same,GI50,CCRF-CEM,11.7 µM (inactive)
same,GI50,COLO 205,18.5 µM (inactive)
same,GI50,DU-145,73.5 µM (inactive)
same,GI50,EKVX,37.7 µM (inactive)
same,GI50,HCT-116,14.9 µM (inactive)
same,GI50,HCT-15,15.5 µM
same,GI50,HL-60,8.91 µM (inactive)
same,GI50,HOP-92,97.5 µM (inactive)
same,GI50,HT-29,10.7 µM (inactive)
same,GI50,Hs-578T,47 µM (inactive)
same,GI50,IGROV-1,34.4 µM (inactive)
same,GI50,K562,24.6 µM (inactive)
same,GI50,KM12,16.7 µM (inactive)
same,GI50,LOX IMVI,18.7 µM (inactive)
same,GI50,M14,17.2 µM (inactive)
same,GI50,MCF7,16.4 µM (inactive)
same,GI50,MDA-MB-231,37.2 µM (inactive)
same,GI50,MDA-MB-435,16.9 µM (inactive)
same,GI50,MDA-N,21 µM (inactive)
same,GI50,MOLT-4,12.9 µM (inactive)
same,GI50,Malme-3M,14.6 µM (inactive)
same,GI50,NCI-H226,36.6 µM (inactive)
same,GI50,NCI-H23,37.5 µM (inactive)
same,GI50,NCI-H460,17.4 µM (inactive)
same,GI50,NCI-H522,14.4 µM (inactive)
same,GI50,NCI/ADR-RES,25.8 µM (inactive)
same,GI50,OVCAR-4,20.9 µM (inactive)
same,GI50,OVCAR-5,74.1 µM (inactive)
same,GI50,OVCAR-8,17.1 µM (inactive)
same,GI50,PC-3,16.2 µM (inactive)
same,GI50,RPMI-8226,17.3 µM (inactive)
same,GI50,RXF 393,30.2 µM (inactive)
same,GI50,SF-268,41.5 µM (inactive)
same,GI50,SF-295,31.7 µM (inactive)
same,GI50,SF-539,15.3 µM (inactive)
same,GI50,SK-MEL-28,17.7 µM (inactive)
same,GI50,SK-MEL-2,16.8 µM (inactive)
same,GI50,SK-MEL-5,16.3 µM (inactive)
same,GI50,SN12C,56 µM (inactive)
same,GI50,SNB-19,62.8 µM (inactive)
same,GI50,SNB-75,54.7 µM (inactive)
same,GI50,SR,16.1 µM (inactive)
same,GI50,SW-620,33.6 µM (inactive)
same,GI50,TK-10,> 100 µM (inactive)
same,GI50,U-251,37.8 µM (inactive)
same,GI50,UACC-257,17.3 µM (inactive)
same,GI50,UACC-62,16.1 µM (inactive)
same,GI50,UO-31,36.6 µM (inactive)
